Data as given in patent publication US6953789B2, “Thiol compounds, their production and use” (Takeda Chemical Industries, Ltd., priority 1998, dated 2005).

target: T1, recombinant human MMP-13 (Homo sapiens, UniProt P45452); assay: Assay of MMP-13 inhibiting activity (fluorogenic peptide substrate); type: biochemical; conditions: Table 1; 37° C., 2 hours
T1 construct: made in house; host or cells: baculovirus (pBlueBac4 / Bac-N-Blue; virus made in Sf9), expressed in High-Five insect cells; culture supernatant used
Description: Based on the sequence described in the literature by Freije, J. M. et al (Journal of Biological Chemistry, 269: 16766-16773, 1994) and using a PCR method known per se, a human MMP-13 cDNA was obtained.
A pBlueBac4 (Invitrogen) and a Baculovirus vector Bac-N-Blue (Invitrogen) to each of which the human MMP-13 cDNA obtained above was integrated were co-transfected to an Sf9 cell to obtain a MMP-13-expressing recombinant virus.
The recombinant virus thus obtained was infected to a High-Five cell (Invitrogen), and the culture supernatant after three days was employed as an enzyme solution. Experiment 2 Assay of MMP-13 inhibiting activity
75 μl of a sample containing the recombinant human MMP-13, 200 mM sodium chloride, 20 mM calcium chloride, 0.1% Brij 35, 1 mM 2-mercaptoethanol, 200 mM tris-HCl buffer solution (pH7.5) and a test substance at various concentrations was treated with 25 μl of 40 μM MOCAc-Pro-Leu-Gly-Leu-A2pr(DNP)-Ala-Arg-NH2 (PEPTIDE KENKYUSHO) to initiate a reaction and kept at 37° C. for 2 hours, and then 100 μl of 500 mM sodium acetate-HCl buffer solution (pH3.0) was added to terminate the reaction.
The level of liberated MOCAc-Pro-Leu-Gly was determined using a fluorophotometer (MTP-32/F2: CORONA DENKI) at the excitation wavelength of 330 nm and the fluorescent wavelength of 405 nm. The fluorescent level of the reaction in the absence of a test substance was regarded as 100%, and the concentration of each test substance required for achieving 50% inhibition was indicated as IC50.

First: CCOC(=O)CCSC1CC(=O)N(Cc2ccc(Oc3ccccc3)cc2)C1=O (stereo not shown) [Example 3, 3-[2-(Ethoxycarbonyl)ethylthio]-1-(4-phenoxybenzyl)pyrrolidine-2,5-dione]
Second: O=C(SC1CC(=O)N(Cc2ccc(Oc3ccccc3)cc2)C1=O)c1ccccc1 (stereo not shown) [Example 6, 3-Benzoylthio-1-(4-phenoxybenzyl)pyrrolidine-2,5-dione]
The IC50 of the first is higher: greater than 10 µM for the first, 0.002 µM for the second.

`CCSC1CC(=O)N(Cc2ccc(Oc3ccccc3)cc2)C1=O` (stereo not shown) [Example 2, 3-Ethylthio-1-(4-phenoxybenzyl)pyrrolidine-2,5-dione] and `O=C1CC(SCc2ccccc2)C(=O)N1Cc1ccc(Oc2ccccc2)cc1` (stereo not shown) [Example 4, 3-Benzylthio-1-(4-phenoxybenzyl)pyrrolidine-2,5-dione] cannot be ordered by IC50: greater than 10 µM for the first, greater than 10 µM for the second.

“3-Mercapto-1-(4-phenoxybenzylpyrrolidine-2,5-dione [Example 1]” was tested, and the IC50 was 0.005 µM.

same assay, conditions: Table 2; 37° C., 2 hours

Molecule `CC(=O)SC1C(=O)N(Cc2ccc(Oc3ccccc3)cc2)C(=O)C1C` (stereo not shown) [Example 7, 3-Acetylthio-4-methyl-1-(4-phenoxybenzyl)pyrrolidine-2,5-dione] has an IC50 of 0.05 µM.

same assay, conditions: Table 3; 37° C., 2 hours

First: O=C(O)CC(=O)S[C@@H]1CC(=O)N(Cc2ccc(Oc3ccccc3)cc2)C1 [Example 73, 3-Oxo-3-{[(3R)-5-oxo-1-(4-phenoxybenzyl)pyrrolidinyl]sulfanyl}propanoic acid]
Second: CCC(=O)S[C@@H]1CC(=O)N(Cc2ccc(Oc3ccccc3)cc2)C1 [Example 64, S-[(3R)-5-oxo-1-(4-phenoxybenzyl)pyrrolidinyl]propanethioate]
The IC50 of the first is 3.4-fold higher: 0.011 µM for the first, 0.0032 µM for the second.

Compared with `CC(=O)S[C@H]1CC(=O)N(Cc2ccc(Oc3ccccc3)cc2)C1` [Example 21, (S)-4-Acetylthio-1-(4-phenoxybenzyl)pyrrolidin-2-one], `CCNC(=O)S[C@@H]1CC(=O)N(Cc2ccc(Oc3ccccc3)cc2)C1` [Example 51, S-[(3R)-5-oxo-1-(4-phenoxybenzyl)pyrrolidinyl]ethylthiocarbamate] is 4000-fold lower in IC50: 4 µM for the first, 0.001 µM for the second.

Going from `COCS[C@@H]1CC(=O)N(Cc2ccc(Oc3ccccc3)cc2)C1` [Example 98, (4R)-4-[(Methoxymethyl)sulfanyl]-1-(4-phenoxybenzyl)-2-pyrrolidinone] to `CS[C@@H]1CC(=O)N(Cc2ccc(Oc3ccccc3)cc2)C1` [Example 89, (4R)-4-(Methylsulfanyl)-1-(4-phenoxybenzyl)-2-pyrrolidinone], the IC50 rises from 0.2 µM to 0.7 µM (3.5-fold).

Compared with `CN1C(=O)CC(S[C@@H]2CC(=O)N(Cc3ccc(Oc4ccccc4)cc3)C2)C1=O` (stereo partly drawn) [Example 106, 1-Methyl-3-{[(3R)-5-oxo-1-(4-phenoxybenzyl)pyrrolidinyl]sulfanyl}-2,5-pyrrolidinedione], `CC(C)(C)SS[C@@H]1CC(=O)N(Cc2ccc(Oc3ccccc3)cc2)C1` [Example 81, (4R)-4-(t-Butyldisulfanyl)-1-(4-phenoxybenzyl)-2-pyrrolidinone] is 50-fold higher in IC50: 0.02 µM for the first, 1 µM for the second. The first is the more potent here.

Compared with `CCOC(=O)CNC(=O)S[C@@H]1CC(=O)N(Cc2ccc(Oc3ccccc3)cc2)C1` [Example 58, Ethyl [({[(3R)-5-oxo-1-(4-phenoxybenzyl)pyrrolidinyl]sulfanyl}carbonyl)amino]acetate], `O=C1C[C@H](S)CN1Cc1ccc(Oc2ccccc2)cc1` [Example 22, (S)-4-Mercapto-1-(4-phenoxybenzyl)pyrrolidin-2-one] is 430-fold higher in IC50: 0.0007 µM for the first, 0.3 µM for the second.

Compared with `O=C1C[C@@H](SCN2C(=O)c3ccccc3C2=O)CN1Cc1ccc(Oc2ccccc2)cc1` [Example 104, 2-({[(3R)-5-oxo-1-(4-phenoxybenzyl)pyrrolidinyl]sulfanyl}methyl)-1H-isoindole-1,3-(2H)-dione], `O=C(Cc1ccccc1)SC1CC(=O)N(Cc2ccc(Oc3ccccc3)cc2)C1` (stereo not drawn) [Example 68, S-[5-oxo-1-(4-phenoxybenzyl)-3-pyrrolidinyl]2-phenylethanethioate] is 100-fold lower in IC50: 0.2 µM for the first, 0.002 µM for the second.

`O=C(O)c1ccc(CS[C@@H]2CC(=O)N(Cc3ccc(Oc4ccccc4)cc3)C2)cc1` [Example 96, 4-({[(3R)-5-oxo-1-(4-phenoxybenzyl)pyrrolidinyl]sulfanyl}methyl)benzoic acid] gave an IC50 of 0.7 µM.

same assay, conditions: Table 5; 37° C., 2 hours

Compared with `CC(=O)SC1CC(=O)N(Cc2ccc(Oc3ccccc3)cc2)C1C(N)=O` (stereo not drawn) [Example 187, trans-5-Aminocarbonyl-4-acetylthio-1-(4-phenoxybenzyl)pyrrolidin-2-one], `CC(=O)S[C@@H]1CC(=O)N(Cc2ccc(Oc3ccccc3)cc2)[C@H]1C(=O)NCc1ccncc1` (relative stereo) [Example 191, trans-4-Acetylthio-5-(4-pyridylmethyl)aminocarbonyl-1-(4-phenoxybenzyl)pyrrolidin-2-one] is 3-fold lower in IC50: 0.36 µM for the first, 0.12 µM for the second. The second is the more potent here.

`O=C(NCCO)[C@H]1[C@H](S)CC(=O)N1Cc1ccc(Oc2ccccc2)cc1` (relative stereo) [Example 190, trans-5-(2-Hydroxyethyl)aminocarbonyl-4-mercapto-1-(4-phenoxybenzyl)pyrrolidin-2-one] and `O=C(NCc1ccncc1)[C@H]1[C@H](S)CC(=O)N1Cc1ccc(Oc2ccccc2)cc1` (relative stereo) [Example 192, trans-4-Mercapto-5-(4-pyridylmethyl)aminocarbonyl-1-(4-phenoxybenzyl)pyrrolidin-2-one] are within 1.5-fold of each other in IC50: 0.025 µM for the first, 0.019 µM for the second.

same assay, conditions: Table 7; 37° C., 2 hours

First: O=C1CC(SSC2CC(=O)N(Cc3ccc(Oc4ccccc4)cc3)C2=O)C(=O)N1Cc1ccc(Oc2ccccc2)cc1 (stereo not shown) [Example 12]
Second: O=C1C[C@H](SS[C@H]2CC(=O)N(Cc3ccc(Oc4ccccc4)cc3)C2)CN1Cc1ccc(Oc2ccccc2)cc1 [Example 23, (4S,4′S)-4,4′-Dithiobis[1-(4-phenoxybenzyl)pyrrolidin-2-one]]
The IC50 of the first is lower: 0.009 µM for the first, greater than 10 µM for the second.

same assay, conditions: Table 9; 37° C., 2 hours

First: CC(=O)SC1CC(=O)N(Cc2ccc(Oc3ccccc3)c([N+](=O)[O-])c2)C1 (stereo not shown) [Example 151, 4-Acetylthio-1-(3-nitro-4-phenoxybenzyl)pyrrolidin-2-one]
Second: CS(=O)(=O)Nc1cc(CN2CC(S)CC2=O)ccc1Oc1ccccc1 (stereo not shown) [Example 153, 4-Mercapto-1-(3-methylsulfonylamino-4-phenoxybenzyl)pyrrolidin-2-one]
The IC50 of the first is higher: greater than 10 µM for the first, 4 µM for the second. The second is the more potent here.

Going from `CC(=O)SC1CC(=O)N(Cc2ccc(Oc3ccc(OC(F)(F)F)cc3)cc2)C1` (stereo not shown) [Example 140, 4-Acetylthio-1-{4-[4′-(trifluoromethoxy)phenoxy]benzyl}pyrrolidin-2-one] to `CC(=O)S[C@@H]1CC(=O)N(Cc2ccc(Oc3ccc(Br)cc3)cc2)C1` [Example 199, (R)-4-Acetylthio-1-[4-(4′-bromophenoxy)benzyl]pyrrolidin-2-one], the IC50 falls from 0.02 µM to 0.006 µM (3.3-fold). The second is the more potent here.

Compared with `O=C1CC(S)CN1Cc1ccc(Oc2ccc(Br)cc2)cc1` (stereo not shown) [Example 35, 4-Mercapto-1-(4-(4′-bromophenoxy)benzyl)pyrrolidin-2-one], `O=C1C[C@@H](S)CN1Cc1ccc(Oc2ccc(Br)cc2)cc1` [Example 200, (R)-4-Mercapto-1-[4-(4′-bromophenoxy)benzyl]pyrrolidin-2-one] is 3-fold lower in IC50: 0.006 µM for the first, 0.002 µM for the second. The second is the more potent here.

same assay, conditions: Table 10; 37° C., 2 hours

Compared with `CC(=O)SC1CC(=O)N(Cc2ccc(CCc3ccccc3)cc2)C1` (stereo not shown) [Example 167, 4-Acetylthio-1-(4-phenethylbenzyl)pyrrolidin-2-one], `CC(=O)SC1CC(=O)N(Cc2ccc([S+]([O-])c3ccccc3)cc2)C1` (stereo not shown) [Example 171, 4-Acetylthio-1-(4-phenylsulfinylbenzyl)pyrrolidin-2-one] is higher in IC50: 0.4 µM for the first, greater than 10 µM for the second. The first is the more potent here.

First: CC(=O)SC1CC(=O)N(CCc2ccc(Oc3ccccc3)cc2)C1 (stereo not drawn) [Example 169, S-[5-Oxo-1-(4-phenoxyphenethyl)-3-pyrrolidinyl]ethanethioate]
Second: O=C1CC(S)CN1CCc1ccc(Oc2ccccc2)cc1 (stereo not shown) [Example 170, 1-(4-Phenoxyphenethyl)-4-sulfanyl-2-pyrrolidinone]
The IC50 of the first is 14-fold higher: 7 µM for the first, 0.5 µM for the second. The second is the more potent here.

Compared with `CC(=O)SC1CC(=O)N(C(=O)c2ccc(Oc3ccccc3)cc2)C1` (stereo not drawn) [Example 196, S-[5-Oxo-1-(4-phenoxybenzoyl)-3-pyrrolidinyl]ethanethioate], `O=C1CC(S)CN1Cc1ccc(S(=O)(=O)c2ccccc2)cc1` (stereo not shown) [Example 174, 4-Mercapto-1-(4-phenylsulfonylbenzyl)pyrrolidin-2-one] is lower in IC50: greater than 10 µM for the first, 0.51 µM for the second.

same assay, conditions: Table 11; 37° C., 2 hours

`CC(=O)SC1CC(=O)N(CC2CCN(C(=O)c3ccccc3)CC2)C1` (stereo not shown) [Example 193, 4-Acetylthio-1-[(1-benzoyl-4-piperidyl)methyl]pyrrolidin-2-one] showed an IC50 greater than 10 µM.

same assay, conditions: Table 12; 37° C., 2 hours

In the case of `O=C1CCC(S)CN1Cc1ccc(Oc2ccccc2)cc1` (stereo not shown) [Example 109, 1-(4-Phenoxybenzyl)-5-sulfanyl-2-piperidinone], the IC50 is reported as 0.06 µM.

same assay, conditions: Table 13; 37° C., 2 hours

`O=C(SC1CCCN(Cc2ccc(Oc3ccccc3)cc2)C1=O)c1ccccc1` (stereo not shown) [Example 47, 3-Benzoylthio-1-(4-phenoxybenzyl)piperidin-2-one] showed an IC50 of 4 µM.
